From publication PMC6000956, “Immunomodulatory activities of pixatimod: emerging nonclinical and clinical data, and its potential utility in combination with PD-1 inhibitors” (Journal for Immunotherapy of Cancer, 2018)
Marks after values point to notes of the source that are not given here.

Assays:
[1] = Plasma exposure in the Phase Ia monotherapy study (PG545102), IV infusion; format: in vivo; conditions: human
Procedure: (§1) A 1 month toxicology study of pixatimod in beagle dogs was performed under OECD Good Laboratory Practice (GLP) to assess the toxicity and toxicokinetic profile of pixatimod with 5 intravenous, short term (approximately 1 h) infusions at three defined dose levels of 2.5, 7.5 and 20 mg/kg weekly over 29 days. Blood samples were collected for toxicokinetic investigation to provide information on the systemic exposure. Parameters monitored included mortality and morbidity, clinical signs, food consumption, body weight and body temperature, ophthalmoscopy and electrocardiographic measurements. Laboratory investigations were performed using haematology (ADVIA 120), coagulation (AMAX Density Plus Coagulometer), clinical chemistry (VITROS 950) and urinalysis (URYXXON 300). At the end of the treatment, all animals were euthanized and subjected to a complete necropsy with selected organs weighed and followed by a detailed histopathology evaluation. Bone marrow smears from the femur and sternum were prepared at necropsy, fixed and stained with May-Grünwald and Giemsa stain for analysis. Blood samples obtained during the Phase Ia monotherapy study (PG545102) were collected weekly and the parameters reported herein were analysed by local hospital laboratories.
(§2) Plasma samples were analysed using a LC-MS/MS method as previously described. Pharmacokinetic parameters in animal studies were determined by non-compartmental analyses (NCA) of the mean plasma pixatimod concentration vs time profiles for each dose using the linear trapezoidal method in WinNonlin 5.2.1. For comparison with previous animal studies, exposure data (AUC0-last) in clinical samples were derived using individual subject NCA type exposure parameters from the original plasma concentration data using R (64-bit) Version 3.0.1.

[2] = tested on: beagle dogs; test: 1 month GLP toxicology study, weekly IV infusion; format: in vivo
Procedure: as §1
In the 4T1.2 model, the percentage tumor growth inhibition was determined according to the following formula: 100 × (1-ΔT/ ΔC) where ΔC and ΔT were calculated by subtracting the mean tumor volume in each group on day 1 of treatment from the mean tumor volume on the day of analysis. Statistical analysis was performed using GraphPad Prism, v 6.0 (GraphPad, La Jolla, CA). An ANOVA analysis was performed followed by Dunnett’s post hoc test to compare the tumor growth in the treated groups to the vehicle control. In the dog toxicology study, the analysis was performed using non-parametric Kruskal-Wallis test. The frequency of clinical observations, and necropsy and histopathology findings, was calculated as applicable. For all statistical analyses, statistically significance differences between control and treatment groups was signified by *P < 0.05, **P < 0.01, ***P < 0.001, ****P < 0.0001 versus vehicle control.

[3] = Toxicokinetics in the 1 month IV toxicology study in beagle dogs; format: in vivo; conditions: dog, plasma
Procedure: as §1, §2

[4] = set-up: method as in PMID 25754234; conditions: Mouse, 15 mg/kg IV (HED 73 mg); cited from earlier work
[5] = tested on: rats; test: Repeated weekly SC toxicology in rats (organ weights); format: in vivo; conditions: weekly SC x5, 3, 12 and 48 mg/kg
Procedure: Supplementary file 40425_2018_363_MOESM2_ESM.pptx: Additional file 2: Effect of pixatimod dosing on selected organ weights in beagle dogs (IV and SC) and rats (SC). Repeated weekly IV exposure (× 5) of pixatimod increases the relative weights of liver (A) and kidney (B) but not thymus (C) nor spleen (D) in beagle dogs. […] Data shown is for combined sexes. […] Study size, n = 15 for control and 48 mg/kg groups and n = 10 for 3 and 12 mg/kg groups. […] Study size, n = 5 for control and 20 mg/kg groups and n = 3 for 2.5 and 7.5 mg/kg groups. *P < 0.05, **P < 0.01, ***P < 0.001 versus control (Kruskal-Wallis test for the dog study, ANOVA followed by Dunnett’s comparison for the rat study). (PPTX 65 kb)

[6] = High Dose (20 mg/kg), 6 animals examined
[7] = Low Dose (2.5 mg/kg), 6 animals examined
[8] = Mid Dose (7.5 mg/kg), 6 animals examined

SMILES: CC(C)CCC[C@@H](C)[C@H]1CC[C@H]2[C@@H]3CC[C@H]4C[C@@H](O[C@@H]5O[C@H](COS(=O)(=O)O)[C@@H](O[C@H]6O[C@H](COS(=O)(=O)O)[C@@H](O[C@H]7O[C@H](COS(=O)(=O)O)[C@@H](O[C@H]8O[C@H](COS(=O)(=O)O)[C@@H](OS(=O)(=O)O)[C@H](OS(=O)(=O)O)[C@H]8OS(=O)(=O)O)[C@H](OS(=O)(=O)O)[C@H]7OS(=O)(=O)O)[C@H](OS(=O)(=O)O)[C@H]6OS(=O)(=O)O)[C@H](OS(=O)(=O)O)[C@H]5OS(=O)(=O)O)CC[C@]4(C)[C@H]3CC[C@]12C [pixatimod]
- AUC(0-t) ([1]; 25 mg, 25 mg weekly IV, read-out: AUC0-last Week 1): 465 µg·h/mL
- AUC(0-t) ([1]; 25 mg, 25 mg weekly IV, read-out: AUC0-last Week 4): 610 µg·h/mL
- AUC(0-t) ([1]; 50 mg, 50 mg weekly IV, read-out: AUC0-last Week 1): 709 µg·h/mL
- AUC(0-t) ([1]; 50 mg, 50 mg weekly IV, read-out: AUC0-last Week 4): 1690 µg·h/mL
- AUC(0-t) ([1]; 100 mg, 100 mg weekly IV, read-out: AUC0-last Week 1): 1210 µg·h/mL
- AUC(0-t) ([1]; 100 mg, 100 mg weekly IV, read-out: AUC0-last Week 4): 2380 µg·h/mL
- AUC(0-t) ([1]; 150 mg, 150 mg weekly IV, read-out: AUC0-last Week 1): 1440 µg·h/mL
- AUC(0-t) ([1]; 150 mg, 150 mg weekly IV, read-out: AUC0-last Week 4): 2780 µg·h/mL
- mortality ([2]; 2.5, 7.5 and 20 mg/kg weekly IV over 29 days): no mortality
- Kidney: Cell infiltrate, mixed, perivascular, animals affected [2, 6]: 6
- Kidney: Cell infiltrate, mixed, perivascular, mild [2, 6]: 4
- Kidney: Cell infiltrate, mixed, perivascular, minimal [2, 6]: 1
- Kidney: Cell infiltrate, mixed, perivascular, moderate [2, 6]: 1
- Kidney: Dilatation tubular, animals affected [2, 6]: 6
- Kidney: Dilatation tubular, by grade (minimal or mild, not resolvable) [2, 6]: 6
- Kidney: Sclerosis glomerular, animals affected [2, 6]: 3
- Kidney: Sclerosis glomerular, mild [2, 6]: 1
- Kidney: Sclerosis glomerular, minimal [2, 6]: 2
- Kidney: Vacuolation glomerular, animals affected [2, 6]: 4
- Kidney: Vacuolation glomerular, mild [2, 6]: 4
- Liver: Cell infiltrate, mixed, diffuse, animals affected [2, 6]: 2
- Liver: Cell infiltrate, mixed, diffuse, mild [2, 6]: 2
- Liver: Cell infiltrate, mononuclear, multifocal, animals affected [2, 6]: 0
- Liver: Hypertrophy hepatocellular, animals affected [2, 6]: 6
- Liver: Hypertrophy hepatocellular, mild [2, 6]: 5
- Liver: Hypertrophy hepatocellular, minimal [2, 6]: 1
- Liver: Hypertrophy, Kupffer cells, animals affected [2, 6]: 6
- Liver: Hypertrophy, Kupffer cells, mild [2, 6]: 4
- Liver: Hypertrophy, Kupffer cells, minimal [2, 6]: 2
- Spleen: Cell infiltrate, mixed cellular, diffuse (minimal), animals affected [2, 6]: 4
- Thymus: Lymphoid atrophy, animals affected [2, 6]: 2
- Thymus: Lymphoid atrophy, mild [2, 6]: 1
- Thymus: Lymphoid atrophy, minimal [2, 6]: 1
- Kidney: Cell infiltrate, mixed, perivascular, animals affected [2, 7]: 1
- Kidney: Cell infiltrate, mixed, perivascular, minimal [2, 7]: 1
- Kidney: Dilatation tubular, animals affected [2, 7]: 4
- Kidney: Dilatation tubular, minimal [2, 7]: 4
- Kidney: Sclerosis glomerular, animals affected [2, 7]: 0
- Kidney: Vacuolation glomerular, animals affected [2, 7]: 0
- Liver: Cell infiltrate, mixed, diffuse, animals affected [2, 7]: 0
- Liver: Cell infiltrate, mononuclear, multifocal, animals affected [2, 7]: 0
- Liver: Hypertrophy hepatocellular, animals affected [2, 7]: 5
- Liver: Hypertrophy hepatocellular, mild [2, 7]: 3
- Liver: Hypertrophy hepatocellular, minimal [2, 7]: 2
- Liver: Hypertrophy, Kupffer cells, animals affected [2, 7]: 2
- Liver: Hypertrophy, Kupffer cells, mild [2, 7]: 1
- Liver: Hypertrophy, Kupffer cells, minimal [2, 7]: 1
- Spleen: Cell infiltrate, mixed cellular, diffuse (minimal), animals affected [2, 7]: 0
- Kidney: Cell infiltrate, mixed, perivascular, animals affected [2, 8]: 5
- Kidney: Cell infiltrate, mixed, perivascular, mild [2, 8]: 1
- Kidney: Cell infiltrate, mixed, perivascular, minimal [2, 8]: 4
- Kidney: Dilatation tubular, animals affected [2, 8]: 6
- Kidney: Dilatation tubular, mild [2, 8]: 1
- Kidney: Dilatation tubular, minimal [2, 8]: 5
- Kidney: Sclerosis glomerular, animals affected [2, 8]: 0
- Kidney: Vacuolation glomerular, animals affected [2, 8]: 0
- Liver: Cell infiltrate, mixed, diffuse, animals affected [2, 8]: 0
- Liver: Cell infiltrate, mononuclear, multifocal, animals affected [2, 8]: 0
- Liver: Hypertrophy hepatocellular, animals affected [2, 8]: 6
- Liver: Hypertrophy hepatocellular, mild [2, 8]: 5
- Liver: Hypertrophy hepatocellular, minimal [2, 8]: 1
- Liver: Hypertrophy, Kupffer cells, animals affected [2, 8]: 6
- Liver: Hypertrophy, Kupffer cells, mild [2, 8]: 2
- Liver: Hypertrophy, Kupffer cells, minimal [2, 8]: 4
- Spleen: Cell infiltrate, mixed cellular, diffuse (minimal), animals affected [2, 8]: 2
- AST ([2]; after 5 weekly IV doses): significant changes
- large unstained cells (LUCs) ([2]; blood, following exposure): significant increases
- bone marrow smears ([2]; femur and sternum at necropsy): No treatment-related changes
- body temperature ([2]; following the first dose, dissipated upon repeat dosing by day 30): significant elevations
- absolute WBC counts and main subsets (lymphocytes, neutrophils and monocytes) ([2]; weekly IV dosing): remained within normal ranges
- relative weight of kidneys ([2]; weekly IV x5): significantly increased
- relative weight of liver ([2]; weekly IV x5): significantly increased
- spleen weight ([2]; weekly IV x5): no effect
- thymus weights ([2]; weekly IV x5): modest but dose-dependent decreases
- AUC(0-t) ([3]; 2.5 mg/kg, 2.5 mg/kg weekly IV (HED 83 mg), read-out: AUC0-last Week 1): 697 µg·h/mL
- AUC(0-t) ([3]; 2.5 mg/kg, 2.5 mg/kg weekly IV (HED 83 mg), read-out: AUC0-last Week 4): 1370 µg·h/mL
- AUC(0-t) ([3]; 7.5 mg/kg, 7.5 mg/kg weekly IV (HED 250 mg), read-out: AUC0-last Week 1): 1810 µg·h/mL
- AUC(0-t) ([3]; 7.5 mg/kg, 7.5 mg/kg weekly IV (HED 250 mg), read-out: AUC0-last Week 4): 4940 µg·h/mL
- AUC(0-t) ([3]; 20 mg/kg, 20 mg/kg weekly IV (HED 666 mg), read-out: AUC0-last Week 1): 6880 µg·h/mL
- AUC(0-t) ([3]; 20 mg/kg, 20 mg/kg weekly IV (HED 666 mg), read-out: AUC0-last Week 4): 10500 µg·h/mL
- AUC0-last Week 1 [4]: 1358 ^c μg.h/mL
- Relative spleen weight [5]: increased in a dose-dependent manner
